Laboratory results published in patent US20100267928A1, “ACTIVATABLE DIAGNOSTIC AND THERAPEUTIC COMPOUND” (priority 2007, published 2010).
Primed or numbered codes have the meaning given here. Where no end group is shown, it is not given here. The star is where a group is joined. FITC = O=C1OC2(c3ccc(O)cc3Oc3cc(O)ccc32)c2ccc(NC(=S)*)cc21; DOTA = O=C(O)CN1CCN(CC(=O)O)CCN(CC(=O)*)CCN(CC(=O)O)CC1; FITC′ = fluorescent dye, fluorescein isothiocyanate

Experiments:
[1] = system: LN18 and U373 glioma cells; details: 130 μM; for apoptosis (binding of Alexa annexin to phosphatidyl serine; morphologic alterations), MMP-2 active: APMA-containing medium without inhibitor; for signs of cell death, MMP-2 inactive: data not shown
Method: Human malignant glioma cells (U373 and LN18) were seated into 25 cm^2 culture flasks which contained 3 ml RPMI medium. This was left as it is for one day so that enough matrix metalloprotenases (MMP-2) could accumulate.
In a second test the same compounds were again dissolved in the media of 12 flasks (130 μM), however now with MMP-2 inhibitor I (Calbiochem).
As a control four small flasks were used wherein both cell lines were incubated in a one day old medium with and also without APMA.
For the confocal laser scanning microscopy an inverted LSM510 laser scanning microscope (Karl Zeiss, Jena, Deutschland) (Objectives: LD Achroplan 40×0.6, Plan Neofluar 20×0.50, 40×0.75) was used [fluorescence excitation at 488 nm (argon-ion laser) and […] (helium-neon laser)]. Superimposed images of FITC- and alexa-stained cells were produced. All measurements were performed on living, non-fixed cells for three times.

[2] = system: LN18 and U373 glioma cells; test: Confocal laser scanning microscopy (CLSM) and FACS, staining of cell nuclei; format: cell-based, human; details: 130 μM; for staining of the cell nuclei, MMP-2 active: APMA-containing medium without inhibitor; for staining of the cell nuclei, MMP-2 inactive: APMA-containing medium, MMP-2 inactive/inhibited
Method: (§1) The FACS analysis was performed on a Becton-Dickinson FACSCalibur. [[…] of the cell suspension (1×10^6 cells+[…] FACS buffer (DPBS buffer with 1% paraformaldehyde)]. Approximately 25.000 to 35.000 cells were measured per sample [fluorescence excitation: argon-ion laser (480 nm), fluorescence detection: 540 to 565 nm band-path filter]. The tests were repeated two times.

LN18 glioma cells = test: FACS analysis of fluorescence-stained cells; format: cell-based, human; details: for strongly stained cells in FACS after cleavage by active MMP-2: active versus inactive MMP-2 in culture medium; for fluorescence after cleavage by MMP-2 in comparison to the components 2 and 2A: depending on the concentration, FIG. 5
Method: as §1

MMP-2 = molecular target: T1, MMP-2 (Homo sapiens, UniProt P08253); test: Cleavage test with MMP-2, cleavage products examined by HPLC; format: biochemical; details: for cleavage of the compound by MMP-2 (HPLC): already active MMP-2 or proform of MMP-2 activated by APMA, 2 hours in HEPES buffer; for cleavage of the compound by MMP-2 in presence of the inhibitor (HPLC): with MMP-2 inhibitor I
T1 construct: purchased Calbiochem
T1 sequence (P08253 110-660): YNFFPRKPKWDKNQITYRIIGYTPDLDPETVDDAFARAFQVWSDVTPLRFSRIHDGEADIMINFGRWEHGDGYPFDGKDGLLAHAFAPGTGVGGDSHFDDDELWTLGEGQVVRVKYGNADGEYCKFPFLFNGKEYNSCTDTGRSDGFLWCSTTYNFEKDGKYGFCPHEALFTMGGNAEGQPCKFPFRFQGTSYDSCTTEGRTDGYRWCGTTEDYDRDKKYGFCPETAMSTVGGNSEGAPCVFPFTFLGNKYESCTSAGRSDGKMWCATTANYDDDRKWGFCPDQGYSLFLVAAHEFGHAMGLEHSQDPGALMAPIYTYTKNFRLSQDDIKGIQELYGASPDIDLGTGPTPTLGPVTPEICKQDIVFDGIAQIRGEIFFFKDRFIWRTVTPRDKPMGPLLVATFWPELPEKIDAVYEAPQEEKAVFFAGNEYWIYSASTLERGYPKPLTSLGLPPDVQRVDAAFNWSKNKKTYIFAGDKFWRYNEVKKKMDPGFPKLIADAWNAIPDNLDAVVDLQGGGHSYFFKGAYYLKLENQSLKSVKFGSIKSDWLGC
Method: The incubation in HEPES buffer with active MMP-2 was made for 2 hours.
[…]. For this 1% APMA stock solution (100 mM in DMSO) was added to the solution containing the MMP-2 proenzyme and the compounds (final APMA concentration: 1 mM, with 1% DMSO).
In the following also an incubation of 2 hours was performed. In addition the tests were made with the MMP-2 inhibitor I (Calbiochem). All six compounds were, as a control, also incubated into HEPES buffer without MMP-2 for two hours.

[3] = system: U373 and LN18 glioma cells; test: Magnetic resonance relaxometry on glioma cell centrifugates; format: cell-based, human; details: for shortening of the T1 time, inhibitor-free medium: without MMP-2 inhibitor
Method: Human U373 and LN18 glioma cells were grown in 25 cm^2 culture flasks (70% confluence). Accutase™ (PAA laboratories, Pasching, Austria) was added to strip off the cells from the bottom of the culture flasks.
In a first try the cells were collected and subsequently distributed on 16 Eppendorf-vials (6×10^6 cells per vial). The cells in the first four vials were used as a control (only RPMI medium with and also without APMA, two cell lines). […] In the following it was washed for three times with PBS and centrifuged with 800 rpm (rounds per minute) for 5 minutes.
In another test adherent U373 and LN18 glioma cells were incubated with the compounds 2A, 4A and […], and were stripped off in the following and collected in Eppendorf vials for the MRT. The MRT analysis of the Eppendorf vials with the cell centrifugates were performed in a 3 Tesla full body MRT apparatus (Trio, Siemens Magnetom Sonata, circular polarised knee coil).
The following spin echo sequence was used to obtain sagittal T1-weighted MRT images.
[…] TE (echo time): 7.4 ms, flip angle 90°, averages: 1, concatenations: 2, measurements: 2, number of slices: 19, distance factor: 30%, slice thickness: 3 mm, field of view read: 180 mm, field of view phase: 100%, base resolution: 256, phase resolution: 100%, voxel size: 0.7×0.7×3.0 mm, scan time: 1:48 min.
By means of multiple spin echo measurements (TR: 20-8000 ms, 50 different TR values) different signal intensities were measured through which the T1 relaxation time could be determined.
TR: 20-8000 ms (50 different TR values), TE: 6.4 ms, flip angle 90°, averages: 1, measurements; 1, number of slices: 1, slice thickness: 1 mm, field of view read: 120 mm, field of view phase: 87.5, base resolution 128, phase resolution; 100% voxel size: 0.9×0.9×1 mm.
For the analysis and calculations a Matlab programme (Math Works, Natick, Mass., USA) was used. The T1 values were determined via a two-parameter fit. All signal curves were examined and rated as being mono-exponential. All tests were performed three times.

Substance	apoptosis (binding of Alexa annexin to phosphatidyl serine; morphologic alterations), MMP-2 active [1]	signs of cell death, MMP-2 inactive [1]	staining of the cell nuclei, MMP-2 active [2]	staining of the cell nuclei, MMP-2 inactive [2]	strongly stained cells in FACS after cleavage by active MMP-2 (LN18 glioma cells; LN18 glioma cells)	displacement of the peak of the FACS histogram to the right, V4 versus V2 (LN18 glioma cells; LN18 glioma cells, after cleavage by active MMP-2)	fluorescence after cleavage by MMP-2 in comparison to the components 2 and 2A (LN18 glioma cells)	cleavage of the compound by MMP-2 (HPLC) (MMP-2)	cleavage of the compound by MMP-2 in presence of the inhibitor (HPLC) (MMP-2)	staining of the cell nuclei, MMP-2 inactive ([2]; listed as 5)	cleavage of the compound by MMP-2 (HPLC) (MMP-2; listed as 5)	shortening of the T1 time in comparison to component 2A, inhibitor-free medium ([3]; depending on the concentration)	shortening of the T1 time, inhibitor-free medium [3]	cleavage of the compound by MMP-2 (HPLC) (MMP-2; listed as 5A)	cleavage of the compound by MMP-2 (HPLC) (MMP-2; listed as V5a)	shortening of the T1 time in comparison to the native control, inhibitor-containing medium ([3]; 26 and 130 μM, with MMP-2 inhibitor)	signal intensity at TR: 400 ms, active MMP-2 versus inactive MMP-2 ([3]; LN18 glioma cell centrifugates, 26 and 130 μm, washed and centrifuged three times)
K(DOTA)-G-PLGLA-GGPKKKRKVRRRR-K(FITC)-GG-K(DOTA) (K(DOTA)GPLGLAGGPKKKRKVRRRRK(FITC)GGK(DOTA)) [V4]	apoptotic	did not show any signs of cell death	staining of the cell nuclei can only be observed after the cleavage	few stained cell nuclei	considerable increase of the strongly stained cells	more pronounced	stronger fluorescence	cleaved	prevented								
K(DOTA)-GG-K(FITC)-RRRR-G-PLGLA-G-RRRR-K(FITC)-GG-K(DOTA) (K(DOTA)GGK(FITC)RRRRGPLGLAGRRRRK(FITC)GGK(DOTA)) [V5]	apoptotic	did not show any signs of cell death	accumulates in the cell nuclei	the cells remain unstained			stronger fluorescence	split into two new peaks	prevented	few stained cell nuclei	cleaved						
K-(GdDOTA)-GG-K(FITC)-RRRR-G-PLGLA-G-RRRR-K(FITC)-GG-K(GdDOTA) (K(DOTA)GGK(FITC′)RRRRGPLGLAGRRRRK(FITC′)GGK(DOTA)-NH2; also: DOTA groups complexed with Gd (GdDOTA)) [V5A]	apoptotic			few stained cell nuclei			stronger fluorescence		prevented			stronger shortening of the T1 time	more distinct shortening of the T1 time	cleaved	split into two new peaks		
PKKKRKV-K(FITC)-GG-K(DOTA)-PLGVR-K(DOTA) (PKKKRKVKGGKPLGVRK) [V2]		did not show any signs of cell death		few stained cell nuclei	considerable increase of the strongly stained cells			cleaved	prevented								
PKKKRKV-K(FITC)-GG-K(GdDOTA)-PLGVR-K(GdDOTA) (PKKKRKVKGGKPLGVRK; not fully specified) [V2A]		did not show any signs of cell death		few stained cell nuclei				cleaved	prevented				more distinct shortening of the T1 time			minor shortening of the T1 time	considerably higher signal intensity
